Source: publication PMC5408612, “Biophysical studies of cholesterol effects on chromatin” (Journal of Lipid Research, 2017)

Molecular target: T1, long chromatin fibers (chicken histone octamer on 177 bp x 36 array of 601 DNA) (Gallus gallus, UniProt P02263+P0C1H3+P62801+P84229)
T1 construct: gene H3-I
Conditions: labelled compound; 0.5 and 1 uM; on ice; with or without 4.5 mM MgCl2; histone-DNA complex, site on histone versus DNA not resolved

Q: `CC1=CC(C)=[N+]2C1=C(CC[C@@H](C)[C@H]1CC[C@H]3[C@@H]4CC=C5C[C@@H](O)CC[C@]5(C)[C@H]4CC[C@]13C)c1c(C)cc(C)n1[B-]2(F)F` [TopFluor cholesterol, 23-(dipyrrometheneborondifluoride)-24-norcholesterol] was tested. Which “fluorescence co-migration in native agarose gel (EMSA), pelleting assay” value did it give?
A: Its value is “cholesterol bound avidly to open or compacted chromatin fibers”.
